Literature values in patent publication US8247435B2, “Formulations for treating human and animal diseases” (priority 2009, dated 2012).
Entries after “also recorded” stand apart in the source; their conditions may differ. Where two headings read alike, the source gives them in different places.

Assays:
[1] = highest dose 3000 mg/day
[2] = oral; MS patients on immunosuppressive or immunomodulatory therapies
[3] = system: normal bladder cells; settings: normal physiological range of urine excretion (10 μg/ml)
[4] = system: human umbilical vein endothelial cells (HUVECs); settings: 10 microM genistein
[5] = system: Reuber H35 hepatoma cells; settings: radiation in the presence of genistein; irradiation alone factor 20
[6] = system: HTB-186 medulloblastoma cell line
[7] = not given; remark: listed apart in the source
[8] = not given; remark: listed apart in the source
[9] = system: VEGF-dependent angiogenesis; settings: VEGF-expressing CAMs
[10] = system: non-small cell lung cancer
[11] = system: Lewis lung carcinoma; settings: mice, day 20
[12] = system: rat 13762 mammary carcinoma; settings: single agent, 40 mg/kg
[13] = system: ocular neovasculation; settings: primates, systemic, twice weekly
[14] = 500 mg/m^2/day
[15] = system: human vascular endothelial cells; settings: doses as low as
[16] = not given; remark: listed apart in the source
[17] = system: non-small cell lung cancer; settings: with carboplatin and paclitaxel
[18] = system: cells in vitro
[19] = cancer patients, 145 patients
[20] = system: Candida; settings: 600 mg orally 3 times a day for 15 days
[21] = 300 mg/day, 4 months
[22] = humans; not identified at doses used

For `CC(=O)O[C@H](CC(=O)[O-])C[N+](C)(C)C` [ALC, Acetyl-L-carnitine], the “side effects and toxicities” value [1] is given as “no toxicities were noted” and the “patients with decreased fatigue intensity” value [2] is given as 63%.

In the case of `O=c1c(-c2ccc(O)cc2)coc2cc(O)cc(O)c12` [genistein, 4′5,7-trihydroxyisoflavone], the mean plasma/serum genistein (American study, Western diet) is given as 5.7 nmol/L, the mean plasma/serum genistein (Japanese study) is given as 248 nmol/L and the “plasma/serum genistein, range” value (Japanese study) is given as 90 to 1204 nmol/L. For the same compound, the excretion half-life (with soy supplementation) was “seven”, the “toxicity to normal bladder cells” value [3] was “not exhibit toxicity” and the “number of genes with altered expression of more than two fold” value [4] was 256. The “factor by which survival was reduced” value [5] was 10000 and the “increase of the antiproliferative effect of cisplatin” value [6] was 1.3 fold.

In the case of `COC1=C(OC)C(=O)C(C/C=C(\C)CC/C=C(\C)CC/C=C(\C)CC/C=C(\C)CC/C=C(\C)CC/C=C(\C)CC/C=C(\C)CC/C=C(\C)CC/C=C(\C)CCC=C(C)C)=C(C)C1=O` [CoQ10, ubiquinone], the “prevalence of memory loss on most recent follow-up” value ([7]; from 8% on initial visit) is listed as 4%, the “prevalence of peripheral neuropathy on most recent follow-up” value ([7]; from 10% on initial visit) is listed as 2% and the “prevalence of dyspnea on most recent follow-up” value ([7]; from 58% on initial visit) is listed as 12%. For the same compound, the “prevalence of myalgia on most recent follow-up” value ([7]; from 64% on initial visit) was 6% and the “prevalence of fatigue on most recent follow-up” value ([7]; from 84% on initial visit, average 240 mg/day, statin discontinued) was 16%.

In the case of Cyanocobalamin [vitamin B12], the “amount excreted in the normal urine daily” value ([8]; in vivo) is given as “About 30 mcg” and the quantity excreted ([8]; injected in a large dose up to 100 mcg) is given as “up to 90%”.

In the case of angiostatin, the “total vessel number relative to VEGF controls” value [9] is given as “nearly half”.

In the case of `CC(C)[C@@H](CC[C@@H](C)[C@H]1CC[C@H]2[C@@H]3[C@H](O)C[C@H]4C[C@@H](NCCCNCCCCN)CC[C@]4(C)[C@H]3CC[C@]12C)OS(=O)(=O)O` [squalamine], the “patients with dose-limiting toxicity” value ([10]; 400 mg/m^2/day, arthralgia, myalgia, neutropenia) is given as “two of three”, the tolerability ([10]; continuously daily for 5 days with paclitaxel and carboplatin on day 1) is given as “well tolerated” and the “number of lung metastases relative to controls” value [11] is given as “reduced to half; also recorded: reduced by half”. The tumor growth delay [12] was “modest effect”, the “dose producing inhibition of ocular neovasculation and partial regression of new vessels” value [13] was 12 mg/m^2 and the “plasma concentrations relative to those required for antiangiogenic effects in preclinical studies” value [14] was “at least an order of magnitude higher”. For the same compound, the tolerability [14] was “well tolerated”, the “dose that halted proliferation of human vascular endothelial cells” value [15] was 160 nM and the tolerability ([16]; 384 mg/m^2/day, patients without prior exposure to squalamine) was “well-tolerated”. For the same compound, the best-tolerated dose ([16]; continuous intravenous infusion over 120 h, every 14 days, 19 patients) was 192 mg/m^2/day, the “objective responses, patients” value ([17]; 300 mg/m^2/day for one or more cycles, response = 50% or greater reduction in tumor size) was 36% and the “patients with an objective response” value ([17]; all patients (11 of 36)) was “Thirty-one”.

In the case of `Oc1ccc(C=Cc2cc(O)cc(O)c2)cc1` [resveratrol, 3,4′,5-trihydroxystilbene], the “levels required for cancer chemopreventive effects in cells in vitro” value [18] is listed as “at least 5 μM”.

For `O=c1[nH]c(=O)n(C2CCCO2)cc1F` (stereo not drawn) [tegafur alone, tegafur], the 50% survival time [19] is given as 92 days.

In the case of `CC(=O)N[C@@H](CS)C(=O)O` [NAC, N-Acetyl Cysteine], the “total vessel number relative to VEGF controls” value [9] is listed as “nearly half” and the “antifungal activity of peripheral blood monocytes (PBM)” value [20] is listed as “significantly enhanced”.

In the case of `O=C(O)CCCCC1CCSS1` (stereo not drawn) [ALA, alpha-lipoic acid], the “patients who were responders or high responders” value [21] is listed as 22 of the 39.

In the case of `COc1cc(/C=C/C(=O)CC(=O)/C=C/c2ccc(O)c(OC)c2)ccc1O` [curcumin], the maximum tolerated dose [22] is given as ≥ 8000 mg per day.
